From PMC8767159, “Multiparameter Optimization of Trypanocidal Cruzain Inhibitors With In Vivo Activity and Favorable Pharmacokinetics” (Frontiers in Pharmacology, 2022) come the findings set out here.

One may read the Cmax as the maximum level reached in the sampled fluid or tissue. What is called Tmax is the time at which the peak concentration occurs. The IC50 is the point on the concentration scale where inhibition reaches its midpoint. The low end stands for higher potency, the high end for lower potency. In general, bioavailability refers to dose-corrected exposure relative to a reference, in per cent. Read a low bioavailability as poor availability.

Read-outs that look alike come from different tables or passages of the source.

Series [1] in a line: In vivo pharmacokinetics in male CD1 mice. Set-up: species or system mouse. The note with it: for CLpu: plasma clearance corrected for the fraction unbound; for clearance: plasma clearance, read-out: CLp (L/h/kg) IV (converted).
Series [2] can be described thus: In vitro metabolic stability in mouse liver microsomes. The class given is in vitro ADME. Conditions: mouse, liver microsomes. In short, it runs like this:
(§1)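 Compounds incubated at 37°C with mouse or human liver microsomes (0.25 mg/ml) in potassium phosphate buffer with NADPH; samples quenched in ACN/MeOH at 0, 5, 10, 15, 20 and 30 min. Parent remaining by LC-MS/MS relative to 0 min; T½ = ln(2)/k, CLint = k*1000/0.25 (μL/min/mg).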
For orientation: Liver microsomes are a subcellular fraction often used to study metabolism.

Series [3] is described as follows: In vitro metabolic stability in human liver microsomes. The note with it: human, liver microsomes. The class given is in vitro ADME. In short, it runs like this:
as §1

Series [4] in a line: Cytotoxicity MTS assay in HFF-1 fibroblasts. The class given is cell-based. Conditions: human HFF-1 fibroblasts. (In general: Formazan colour is commonly taken as a measure of viable cells.)
Where [5] appears, read: mouse, plasma, Table 6, PO 0.5 mg/kg, male CD1 mice.
The mark [6] stands for this setting: male, CD1, mouse, plasma, 0.5 mg/kg, Table S6, PO, mice.

On to `C=CCCn1c(CCNC(=O)COc2ccccc2Cl)nc2ccccc21` [Compound 38], for which, in series [1] (Table 6, IV), the “CLpu” value was found to be 7175 mL/min/kg. In series [1] (mouse, plasma, Table 6, IV 0.5 mg/kg, male CD1 mice), the C0 amounted to 126 ng/mL. Further, the AUC in series [1] (mouse, plasma, Table 6, IV 0.5 mg/kg, male CD1 mice, read-out: AUC (ng*h/ml) IV) amounted to 82 ng·h/mL. For the same compound, in series [1] (mouse, plasma, Table 6, IV 0.5 mg/kg, male CD1 mice, read-out: T1/2 (h) IV (converted)), the half-life is 0.4 h. Besides, the Vd in series [1] (mouse, plasma, Table 6, IV 0.5 mg/kg, male CD1 mice, read-out: V SS (L/kg) IV) stood at 3.3 L/kg. The compound also registered a peak concentration (Cmax) in series [1] (setting [5]) of 2.5 ng/mL. In series [1] (setting [5]), the Tmax amounted to 18 min. In series [1] (mouse, Table 6, IV 0.5 mg/kg, male CD1 mice), the clearance was 6.2 L/h/kg. In addition, the CLint scaled at 5 µM in series [2] (Table 5, CLint/fu, read-out: CLint_u (L/h/kg) mouse (converted)) was 2030 L/h/kg; in series [2] (Table 5, read-out: CLint (L/h/kg) mouse (converted)), 934 L/h/kg; in series [3] (Table 5, CLint/fu, read-out: CLint_u (L/h/kg) human (converted)), 501 L/h/kg; in series [3] (Table 5, read-out: CLint (L/h/kg) human (converted)), 230 L/h/kg. This compound gave an IC50 at 72 h in series [4] above 100 µM.

With `O=C(COc1cccc([N+](=O)[O-])c1)NCCc1nc2ccccc2[nH]1` [Compound 8], the “CLpu” value in series [1] (Table S6) amounted to 396.2 mL/min/kg. The clearance in series [1] (male, CD1, mouse, 0.5 mg/kg, Table S6, IV, mice) is 3.31 L/h/kg. The compound also showed a C0 in series [1] (male, CD1, mouse, plasma, 0.5 mg/kg, Table S6, IV, mice) of 925 ng/mL. Besides, the AUC in series [1] (male, CD1, mouse, plasma, 0.5 mg/kg, Table S6, IV, mice, read-out: AUC (ng*h/mL) IV) stood at 322 ng·h/mL; in series [1] (male, CD1, mouse, plasma, 0.5 mg/kg, Table S6, PO, mice, read-out: AUC (ng*h/mL) PO) it was 44.6 ng·h/mL. Further, the half-life was 0.21 h in series [1] (male, CD1, mouse, plasma, 0.5 mg/kg, Table S6, IV, mice, read-out: T1/2(h) IV (converted)) and 0.42 h in series [1] (male, CD1, mouse, plasma, 0.5 mg/kg, Table S6, PO, mice, read-out: T1/2 (h) PO (converted)). In addition, in series [1] (male, CD1, mouse, plasma, 0.5 mg/kg, Table S6, IV, mice, read-out: VSS (L/kg) IV), the Vd amounted to 1.04 L/kg. This compound yielded a Cmax in series [1] (setting [6]) of 61 ng/mL. Besides, the Tmax in series [1] (setting [6]) turned out to be 18.6 min. This compound had a bioavailability in series [1] (male, CD1, mouse, plasma, 0.5 mg/kg, Table S6, oral bioavailability, mice) of 14%. The CLint scaled at 5 µM in series [2] (Table S5, CLint/fu, read-out: CLint_u (L/h/kg) Mouse (converted)) is 67.5 L/h/kg; in series [2] (Table S5, read-out: CLint (L/h/kg) Mouse (converted)) it was 67.5 L/h/kg; in series [3] (Table S5, CLint/fu, read-out: CLint_u (L/h/kg) Human (converted)), 6.58 L/h/kg; in series [3] (Table S5, read-out: CLint (L/h/kg) Human (converted)), 6.58 L/h/kg. Further, the IC50 at 72 h in series [4] is above 100 µM.
